Test results: paper PMC5762315, “Inhibition of polo-like kinase 4 (PLK4): a new therapeutic option for rhabdoid tumors and pediatric medulloblastoma” (Oncotarget, 2017)
pIC50: −log10 of the molar value.

Legend:
MON cells = test: Combination therapy viability assay, MON; type: cell-based; conditions: Homo sapiens, cytotoxic drug alone, 72 hours, read-out: IC50 of compound 2
DAOY cells = test: Combination therapy viability assay, DAOY; conditions: Homo sapiens, 72 h, read-out: IC50 of compound 2
BT-16 cells = test: Combination therapy viability assay, BT-16; type: cell-based; conditions: Homo sapiens, cytotoxic drug alone, 72 hours, read-out: IC50 of compound 2

Q: Which results are given for `COc1cccc2c1C(=O)c1c(O)c3c(c(O)c1C2=O)C[C@@](O)(C(=O)CO)C[C@@H]3O[C@H]1C[C@H](N)[C@H](O)[C@H](C)O1` [Doxorubicin, doxorubicin]?
A: pIC50 (MON cells): 6.87; pIC50 (DAOY cells): 6.58; pIC50 (BT-16 cells): 5.84

Q: Which results are given for `COc1cc([C@@H]2c3cc4c(cc3[C@@H](O[C@@H]3O[C@@H]5CO[C@@H](C)O[C@H]5[C@H](O)[C@H]3O)[C@H]3COC(=O)[C@H]23)OCO4)cc(OC)c1O` [Etoposide, etoposide]?
A: pIC50 (MON cells): 6.01; pIC50 (DAOY cells): 6.31; pIC50 (BT-16 cells): 6.10
